Measured values reported in PubChem BioAssay (NCI).
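Growth conditions: 96-well plates. Treatment: test compound, 48 hours, 5 concentrations. Analysis: linear interpolation between bracketing concentrations; unreached endpoints set to highest concentration. GI50 is the concentration that inhibits growth by half. At the TGI there is no net growth.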

Experiments:
Assay in all cases: growth of human tumour cells (NCI), 48 h
MDA-MB-231 breast = test system: MDA-MB-231 breast
LOX IMVI melanoma = test system: LOX IMVI melanoma
T-47D breast = test system: T-47D breast
786-0 renal = test system: 786-0 renal
HL-60(TB) leukemia = test system: HL-60(TB) leukemia
IGROV1 ovarian = test system: IGROV1 ovarian
OVCAR-8 ovarian = test system: OVCAR-8 ovarian
MCF7 breast = test system: MCF7 breast
DU-145 prostate = test system: DU-145 prostate
MALME-3M melanoma = test system: MALME-3M melanoma
SK-MEL-5 melanoma = test system: SK-MEL-5 melanoma
NCI-H460 lung = test system: NCI-H460 lung
HOP-92 NSCLC = test system: HOP-92 NSCLC
NCI-H23 lung = test system: NCI-H23 lung
SK-OV-3 ovarian = test system: SK-OV-3 ovarian
EKVX NSCLC = test system: EKVX NSCLC
HS 578T breast = test system: HS 578T breast
MOLT-4 leukemia = test system: MOLT-4 leukemia
SR leukemia = test system: SR leukemia
CAKI-1 renal = test system: CAKI-1 renal
HOP-62 NSCLC = test system: HOP-62 NSCLC
UACC-62 melanoma = test system: UACC-62 melanoma
CCRF-CEM leukemia = test system: CCRF-CEM leukemia
BT-549 breast = test system: BT-549 breast
SNB-19 CNS = test system: SNB-19 CNS
KM12 colon = test system: KM12 colon
NCI-H226 lung = test system: NCI-H226 lung
NCI/ADR-RES ovarian = test system: NCI/ADR-RES ovarian
U251 CNS = test system: U251 CNS
MDA-MB-435 = test system: MDA-MB-435
SW-620 colon = test system: SW-620 colon
NCI-H522 lung = test system: NCI-H522 lung
M14 melanoma = test system: M14 melanoma
ACHN renal = test system: ACHN renal
HCT-15 colon = test system: HCT-15 colon
SK-MEL-2 melanoma = test system: SK-MEL-2 melanoma
RXF 393 renal = test system: RXF 393 renal
COLO 205 colon = test system: COLO 205 colon
SF-295 CNS = test system: SF-295 CNS
SN12C renal = test system: SN12C renal
HCC-2998 colon = test system: HCC-2998 colon
TK-10 renal = test system: TK-10 renal
K-562 leukemia = test system: K-562 leukemia
PC-3 prostate = test system: PC-3 prostate
HCT-116 colon = test system: HCT-116 colon
HT29 colon = test system: HT29 colon
UO-31 renal = test system: UO-31 renal
OVCAR-4 ovarian = test system: OVCAR-4 ovarian
RPMI-8226 leukemia = test system: RPMI-8226 leukemia
UACC-257 melanoma = test system: UACC-257 melanoma
SNB-75 CNS = test system: SNB-75 CNS
OVCAR-5 ovarian = test system: OVCAR-5 ovarian
A498 renal = test system: A498 renal
SK-MEL-28 melanoma = test system: SK-MEL-28 melanoma
SF-539 CNS = test system: SF-539 CNS
SF-268 CNS = test system: SF-268 CNS
OVCAR-3 ovarian = test system: OVCAR-3 ovarian
A549 NSCLC = test system: A549 NSCLC

Brc1ccc2[nH]cc(-c3nn4cc(-c5nccs5)nc4s3)c2c1
GI50 (MDA-MB-231 breast): 1.82 µM
TGI (MDA-MB-231 breast): 5.04 µM
GI50 (LOX IMVI melanoma): 2.41 µM
TGI (LOX IMVI melanoma): 10.3 µM
GI50 (T-47D breast): 3.19 µM
TGI (T-47D breast): > 75.7 µM
GI50 (786-0 renal): 2 µM
TGI (786-0 renal): 4.11 µM
GI50 (HL-60(TB) leukemia): 22.8 µM
TGI (HL-60(TB) leukemia): > 100 µM
GI50 (IGROV1 ovarian): 2.58 µM
TGI (IGROV1 ovarian): 14.6 µM
GI50 (OVCAR-8 ovarian): 2.53 µM
TGI (OVCAR-8 ovarian): 6.77 µM
GI50 (MCF7 breast): 3.23 µM
TGI (MCF7 breast): > 35.5 µM
GI50 (DU-145 prostate): 5.39 µM
TGI (DU-145 prostate): 17.7 µM
GI50 (MALME-3M melanoma): 3.71 µM
TGI (MALME-3M melanoma): 12.1 µM
GI50 (SK-MEL-5 melanoma): 3.86 µM
TGI (SK-MEL-5 melanoma): 18 µM
GI50 (NCI-H460 lung): 2.51 µM
TGI (NCI-H460 lung): 7.36 µM
GI50 (HOP-92 NSCLC): 1.77 µM
TGI (HOP-92 NSCLC): 4.56 µM
GI50 (NCI-H23 lung): 2.49 µM
TGI (NCI-H23 lung): 10.2 µM
GI50 (SK-OV-3 ovarian): 10.3 µM
TGI (SK-OV-3 ovarian): 26.3 µM
GI50 (EKVX NSCLC): 4.45 µM
TGI (EKVX NSCLC): > 56.7 µM
GI50 (HS 578T breast): 4.88 µM
TGI (HS 578T breast): > 64 µM
GI50 (MOLT-4 leukemia): 2.58 µM
TGI (MOLT-4 leukemia): > 100 µM
GI50 (SR leukemia): 5.21 µM
TGI (SR leukemia): > 50.7 µM
GI50 (CAKI-1 renal): 2.46 µM
TGI (CAKI-1 renal): 7.73 µM
GI50 (HOP-62 NSCLC): 2.46 µM
TGI (HOP-62 NSCLC): 11.2 µM
GI50 (UACC-62 melanoma): > 57.7 µM
TGI (UACC-62 melanoma): > 100 µM
GI50 (CCRF-CEM leukemia): 3.06 µM
TGI (CCRF-CEM leukemia): > 40 µM
GI50 (BT-549 breast): 3.22 µM
TGI (BT-549 breast): 11.8 µM
GI50 (SNB-19 CNS): 6.62 µM
TGI (SNB-19 CNS): 22.6 µM
GI50 (KM12 colon): 7.16 µM
TGI (KM12 colon): > 100 µM
GI50 (NCI-H226 lung): 2.28 µM
TGI (NCI-H226 lung): 8.95 µM
GI50 (NCI/ADR-RES ovarian): 2.28 µM
TGI (NCI/ADR-RES ovarian): 7.1 µM
GI50 (U251 CNS): 8.49 µM
TGI (U251 CNS): 21.3 µM
GI50 (MDA-MB-435): 4.4 µM
TGI (MDA-MB-435): 20.1 µM
GI50 (SW-620 colon): 6.68 µM
TGI (SW-620 colon): > 58.1 µM
GI50 (NCI-H522 lung): 9.76 µM
TGI (NCI-H522 lung): 36.9 µM
GI50 (M14 melanoma): 3.58 µM
TGI (M14 melanoma): 16.1 µM
GI50 (ACHN renal): 2.39 µM
TGI (ACHN renal): 7.4 µM
GI50 (HCT-15 colon): 3.25 µM
TGI (HCT-15 colon): > 34.7 µM
GI50 (SK-MEL-2 melanoma): 28.6 µM
TGI (SK-MEL-2 melanoma): > 100 µM
GI50 (RXF 393 renal): 2.32 µM
TGI (RXF 393 renal): 5.01 µM
GI50 (COLO 205 colon): 5.31 µM
TGI (COLO 205 colon): 21.9 µM
GI50 (SF-295 CNS): 3 µM
TGI (SF-295 CNS): 9.89 µM
GI50 (SN12C renal): 8.1 µM
TGI (SN12C renal): > 50.9 µM
GI50 (HCC-2998 colon): 2.65 µM
TGI (HCC-2998 colon): > 22.3 µM
GI50 (TK-10 renal): 9.55 µM
TGI (TK-10 renal): 24.2 µM
GI50 (K-562 leukemia): 2.84 µM
TGI (K-562 leukemia): 11.9 µM
GI50 (PC-3 prostate): 2.36 µM
TGI (PC-3 prostate): 10.8 µM
GI50 (HCT-116 colon): 1.82 µM
TGI (HCT-116 colon): 3.44 µM
GI50 (HT29 colon): 7.9 µM
TGI (HT29 colon): > 69.1 µM
GI50 (UO-31 renal): 1.73 µM
TGI (UO-31 renal): 6.57 µM
GI50 (OVCAR-4 ovarian): 5.04 µM
TGI (OVCAR-4 ovarian): 14.9 µM
GI50 (RPMI-8226 leukemia): 2.25 µM
TGI (RPMI-8226 leukemia): 9.84 µM
GI50 (UACC-257 melanoma): 10.5 µM
TGI (UACC-257 melanoma): > 62.5 µM
GI50 (SNB-75 CNS): 1.79 µM
TGI (SNB-75 CNS): 7.94 µM
GI50 (OVCAR-5 ovarian): 5.88 µM
TGI (OVCAR-5 ovarian): 22.1 µM
GI50 (A498 renal): 16 µM
TGI (A498 renal): 32 µM
GI50 (SK-MEL-28 melanoma): 9.15 µM
TGI (SK-MEL-28 melanoma): > 59.3 µM
GI50 (SF-539 CNS): 3.14 µM
TGI (SF-539 CNS): 12.2 µM
GI50 (SF-268 CNS): 7.98 µM
TGI (SF-268 CNS): 68.9 µM
GI50 (OVCAR-3 ovarian): 2.58 µM
TGI (OVCAR-3 ovarian): 7.62 µM
GI50 (A549 NSCLC): 2.6 µM
TGI (A549 NSCLC): 7.52 µM
